From US10899758B2, “Inhibitors of the menin-MLL interaction” (Vitae Pharmaceuticals, LLC, priority 2016, dated 2021)

Tests used:
[1] = system: human acute monocytic leukemia cell line MV-4-11; assay: Assay 2 (Cell Proliferation Assay), ATP quantitation (CellTiter-Glo); format: cell-based; details: Homo sapiens, MV4-11, 72 h, MV-4-11 cells, read-out: Assay 2 (EC50, inhibition of cell proliferation)
Experimental: Potencies of inhibitor compounds against cell proliferation was assessed against the human acute monocytic leukemia cell line MV-4-11 (ATCC® CRL-9591™) based on ATP quantitation. MV-4-11 cells or toxicity control HL-60 cells (ATCC® CCL-240™) were incubated in 96-well tissue culture plates (1.67×10^4 cells in 200 μL culture media containing 10% FBS per well) with or without test compound for 72 h at 37° C., 5% CO2. After incubation, each well was mixed by pipetting and 95 μL from each well was transferred to a well in 96-well black OptiPlate® plates (PerkinElmer). An equal volume of CellTiter-Glo® Luminescent Cell Viability Assay reagent (Promega) was added to each well, followed by mixing for 5 min on an orbital plate shaker. Luminescence was measured on a Wallac EnVision 2104 Multilabel Reader (PerkinElmer) to quantitate ATP. Percent inhibition of cell proliferation by test compounds was calculated based on uninhibited cell growth (DMSO) versus cells treated with a potent menin inhibitor at a concentration yielding at least 100×LD50.

[2] = target: T1, menin/MLL binding (biotinylated wild-type or mutated menin and MLL-AF9 fusion protein) (Homo sapiens, UniProt O00255); assay: Assay 1 (Binding Assay): AlphaLISA menin/MLL binding; details: 5 nM biotinylated menin, MLL-AF9-FLAG lysate
T1 construct: biotinylated (1) wild-type menin or (2) mutated menin (described in Nature (2012) Vol. 482, pp. 542-548); fused on or other part: Biotin attached chemically (Sulfo-NHS-Biotin); no fused second protein is printed for menin
T1 sequence (O00255 1-459 limits assumed): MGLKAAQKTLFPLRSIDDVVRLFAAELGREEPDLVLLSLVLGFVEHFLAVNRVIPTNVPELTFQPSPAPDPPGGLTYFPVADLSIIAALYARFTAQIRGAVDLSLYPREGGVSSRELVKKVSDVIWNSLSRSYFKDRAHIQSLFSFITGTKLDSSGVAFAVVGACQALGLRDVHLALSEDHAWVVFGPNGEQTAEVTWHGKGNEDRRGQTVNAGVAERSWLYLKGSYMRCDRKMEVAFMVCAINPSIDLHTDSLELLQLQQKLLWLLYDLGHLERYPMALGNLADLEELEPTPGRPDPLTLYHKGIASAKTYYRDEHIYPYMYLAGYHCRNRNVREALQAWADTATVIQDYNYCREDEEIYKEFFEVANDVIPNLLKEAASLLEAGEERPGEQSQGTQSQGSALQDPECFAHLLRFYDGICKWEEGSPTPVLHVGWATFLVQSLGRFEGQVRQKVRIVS
In short: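 Biotinylated E. coli-expressed menin (wild-type or mutant), 5 nM, incubated 30 min RT with compound and HEK293 lysate of MLL1-1,396–AF9-FLAG in pH 7.4 Tris buffer, 5% DMSO, 1 mM DTT. Anti-FLAG acceptor and streptavidin donor beads added, 60 min RT, AlphaLISA signal read. IC50 from four-parameter fit of % inhibition.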

Row | SMILES | EC50 [1] | IC50 [2]
1 | CC(C)N(C)C(=O)c1cc(F)ccc1-n1cc(C2CCN(Cc3ccc(NS(C)(=O)=O)cc3)CC2)c2ccncc21 [Example 23, 5-fluoro-N-isopropyl-N-methyl-2-(3-(1-(4-(methylsulfonamido)benzyl)piperidin-4-yl)-1H-pyrrolo[2,3-c]pyridin-1-yl)benzamide] | ≥ 1000 nM | < 100 nM
2 | CC(C)N(C(=O)c1cc(F)ccc1-n1cc(C2CN(C[C@H]3CC[C@H](NS(C)(=O)=O)CC3)C2)c2ccncc21)C(C)C [Example 138, 5-fluoro-N,N-diisopropyl-2-(3-(1-(((1r,4r)-4-(methylsulfonamido)cyclohexyl)methyl)azetidin-3-yl)-1H-pyrrolo[2,3-c]pyridin-1-yl)benzamide] | 100 to 1000 nM | < 100 nM
3 | CC(C)N(C)C(=O)c1cc(F)ccc1-n1cc([C@H]2CC[C@H](N3CCCCC3)CC2)c2ccncc21 [Example 106, 5-fluoro-N-isopropyl-N-methyl-2-(3-(trans-4-(piperidin-1-yl)cyclohexyl)-1H-pyrrolo[2,3-c]pyridin-1-yl)benzamide] | 100 to 1000 nM | < 100 nM
4 | CC(C)N(C)C(=O)c1cc(F)ccc1-n1cc([C@H]2CC[C@@H](N3CCCC3)CC2)c2ccncc21 [Example 56, 5-fluoro-N-isopropyl-N-methyl-2-(3-(cis-4-(pyrrolidin-1-yl)cyclohexyl)-1H-pyrrolo[2,3-c]pyridin-1-yl)benzamide] | 100 to 1000 nM | < 100 nM
5 | CC(C)N(C)C(=O)c1cc(F)ccc1-n1cc(C2CCN(Cc3ccc(C#N)cc3)CC2)c2ccncc21 [Example 12, 2-(3-(1-(4-cyanobenzyl)piperidin-4-yl)-1H-pyrrolo[2,3-c]pyridin-1-yl)-5-fluoro-N-isopropyl-N-methylbenzamide] | 100 to 1000 nM | < 100 nM
6 | CC(C)N(C)C(=O)c1cc(F)ccc1-n1cc([C@H]2CC[C@@H](N)CC2)c2ccncc21 [Example 58, 2-(3-(cis-4-aminocyclohexyl)-1H-pyrrolo[2,3-c]pyridin-1-yl)-5-fluoro-N-isopropyl-N-methylbenzamide] | ≥ 1000 nM | 100 to 1000 nM
7 | CC(C)N(C)C(=O)c1cc(F)ccc1-n1cc([C@H]2CC[C@@H](N3CCCC(O)C3)CC2)c2ccncc21 (stereo partly drawn) [Example 113, 5-fluoro-2-(3-(cis-4-(3-hydroxypiperidin-1-yl)cyclohexyl)-1H-pyrrolo[2,3-c]pyridin-1-yl)-N-isopropyl-N-methylbenzamide] | 100 to 1000 nM | < 100 nM
8 | CC(C)N(C)C(=O)c1cc(F)ccc1-n1cc(C2CCCN(Cc3ccccc3)C2)c2ccncc21 (centres unmarked) [Example 45, 2-(3-(1-benzylpiperidin-3-yl)-1H-pyrrolo[2,3-c]pyridin-1-yl)-5-fluoro-N-isopropyl-N-methylbenzamide] | 100 to 1000 nM | < 100 nM
9 | CC(C)N(C)C(=O)c1cc(F)ccc1-n1cc([C@H]2CC[C@H](N3CCOCC3)CC2)c2ccncc21 [Example 117, 5-fluoro-N-isopropyl-N-methyl-2-(3-(trans-4-morpholinocyclohexyl)-1H-pyrrolo[2,3-c]pyridin-1-yl)benzamide] | ≥ 1000 nM | < 100 nM
10 | CC(C)N(C)C(=O)c1cc(F)ccc1-n1cc(C2CCN(CCc3ccc(S(C)(=O)=O)cc3)CC2)c2ccncc21 [Example 24, 5-fluoro-N-isopropyl-N-methyl-2-(3-(1-(4-(methylsulfonyl)phenethyl)piperidin-4-yl)-1H-pyrrolo[2,3-c]pyridin-1-yl)benzamide] | 100 to 1000 nM | < 100 nM
11 | CC(C)N(C)C(=O)c1cc(F)ccc1-n1cc(C2CCN(Cc3ccc(F)cc3)CC2)c2ccncc21 [Example 9, 5-fluoro-2-(3-(1-(4-fluorobenzyl)piperidin-4-yl)-1H-pyrrolo[2,3-c]pyridin-1-yl)-N-isopropyl-N-methylbenzamide] | 100 to 1000 nM | < 100 nM
12 | CC(C)N(C)C(=O)c1cc(F)ccc1-n1cc([C@H]2CC[C@H](N)CC2)c2ccncc21 [Example 57, 2-(3-(trans-4-aminocyclohexyl)-1H-pyrrolo[2,3-c]pyridin-1-yl)-5-fluoro-N-isopropyl-N-methylbenzamide] | ≥ 1000 nM | < 100 nM
13 | Cc1ccccc1CN1CCC(c2cn(-c3ccc(F)cc3C(=O)N(C)C(C)C)c3cnccc23)CC1 [Example 14, 5-fluoro-N-isopropyl-N-methyl-2-(3-(1-(2-methylbenzyl)piperidin-4-yl)-1H-pyrrolo[2,3-c]pyridin-1-yl)benzamide] | 100 to 1000 nM | < 100 nM

Further lines, results first:

Row | EC50 [1] | IC50 [2] | SMILES
14 | < 100 nM | < 100 nM | Cc1c(CN2CCC(n3c(=O)n(-c4ccc(F)cc4C(=O)N(C)C(C)C)c4cnccc43)CC2)ccc2[nH]c(C#N)cc12 [Example 82, 2-(1-(1-((2-cyano-4-methyl-1H-indol-5-yl)methyl)piperidin-4-yl)-2-oxo-1,2-dihydro-3H-imidazo[4,5-c]pyridin-3-yl)-5-fluoro-N-isopropyl-N-methylbenzamide]
15 | < 100 nM | < 100 nM | CC(C)N(C(=O)c1cc(F)ccc1-n1cc(C2CCN(Cc3ccccc3)CC2)c2ccncc21)C(C)C [Example 33, 2-(3-(1-benzylpiperidin-4-yl)-1H-pyrrolo[2,3-c]pyridin-1-yl)-5-fluoro-N,N-diisopropylbenzamide]
16 | < 100 nM | < 100 nM | CC(C)N(C)C(=O)c1cc(F)ccc1-n1cc(C2CCNC(Cc3ccccc3)C2)c2ccncc21 (centres unmarked) [Example 31, 2-(3-(2-benzylpiperidin-4-yl)-1H-pyrrolo[2,3-c]pyridin-1-yl)-5-fluoro-N-isopropyl-N-methylbenzamide]
17 | < 100 nM | < 100 nM | CCN(C(=O)c1cc(F)ccc1-n1cc(C2CCN(Cc3ccccc3)CC2)c2ccncc21)C(C)C [Example 32, 2-(3-(1-benzylpiperidin-4-yl)-1H-pyrrolo[2,3-c]pyridin-1-yl)-N-ethyl-5-fluoro-N-isopropylbenzamide]
18 | < 100 nM | < 100 nM | CC(C)N(C(=O)c1cc(F)ccc1-n1cc(C2CCCN(C[C@H]3CC[C@H](NS(C)(=O)=O)CC3)C2)c2ccncc21)C(C)C (some centres unmarked) [Example 87, 5-fluoro-N,N-diisopropyl-2-(3-(1-(((1r,4r)-4-(methylsulfonamido)cyclohexyl)methyl)piperidin-3-yl)-1H-pyrrolo[2,3-c]pyridin-1-yl)benzamide]
19 | < 100 nM | < 100 nM | CC(C)N(C)C(=O)c1cc(F)ccc1-n1cc(C2CCN(Cc3ccc4[nH]c(C#N)cc4c3)CC2)c2ccncc21 [Example 7, 2-(3-(1-((2-cyano-1H-indol-5-yl)methyl)piperidin-4-yl)-1H-pyrrolo[2,3-c]pyridin-1-yl)-5-fluoro-N-isopropyl-N-methylbenzamide]
20 | < 100 nM | < 100 nM | CC(=O)OCCn1c(=O)[nH]c2cc(CN3CCC[C@H](c4cn(-c5ccc(F)cc5C(=O)N(C)C(C)C)c5cnccc45)C3)ccc21 [Example 85, (R)-2-(5-((3-(1-(4-fluoro-2-(isopropyl(methyl)carbamoyl)phenyl)-1H-pyrrolo[2,3-c]pyridin-3-yl)piperidin-1-yl)methyl)-2-oxo-2,3-dihydro-1H-benzo[d]imidazol-1-yl)ethyl acetate]
21 | < 100 nM | < 100 nM | CCCCCCCCCCCCCCCCCC(=O)OCCn1c(=O)[nH]c2cc(CN3CCC[C@H](c4cn(-c5ccc(F)cc5C(=O)N(C)C(C)C)c5cnccc45)C3)ccc21 [Example 86, (R)-2-(5-((3-(1-(4-fluoro-2-(isopropyl(methyl)carbamoyl)phenyl)-1H-pyrrolo[2,3-c]pyridin-3-yl)piperidin-1-yl)methyl)-2-oxo-2,3-dihydro-1H-benzo[d]imidazol-1-yl)ethyl stearate]
22 | < 100 nM | < 100 nM | CCN(C(=O)c1cc(F)ccc1-n1cc(C2CCCN(Cc3ccc4c(c3)[nH]c(=O)n4CCO)C2)c2ccncc21)C(C)C (centres unmarked) [Example 49, N-ethyl-5-fluoro-2-(3-(1-((1-(2-hydroxyethyl)-2-oxo-2,3-dihydro-1H-benzo[d]imidazol-5-yl)methyl)piperidin-3-yl)-1H-pyrrolo[2,3-c]pyridin-1-yl)-N-isopropylbenzamide]
